# Test results as given in ChEMBL document CHEMBL1201861, “Genomics of Drug Sensitity in Cancer screening data, Wellcome Trust Sanger Institute”.
# Assays:
# Assay in all cases: cells
# Ramos-2G6-4C10 = assay type: functional, cell-based; conditions: Homo sapiens;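 also: growth inhibition of the cell line, measured by a cell viability read-out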
# Description: SANGER: Inhibition of human Ramos-2G6-4C10 cell growth in a cell viability assay.
# SW780 = assay type: functional, cell-based, Homo sapiens; conditions: Homo sapiens, SW780;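 also: growth inhibition of the cells, read out with a cell viability assay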
# RMG-I = assay type: functional, cell-based, Homo sapiens; conditions: Homo sapiens, RMG-I;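 also: growth inhibition of human RMG-I cells, read out with a cell viability assay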
# Description: SANGER: Inhibition of human RMG-I cell growth in a cell viability assay.
# U-118-MG = assay type: functional, cell-based, Homo sapiens; conditions: Homo sapiens, U-118-MG
# Description: SANGER: Inhibition of human U-118-MG cell growth in a cell viability assay.
# ES4 = assay type: functional, cell-based, Homo sapiens; conditions: Homo sapiens, ES4;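 also: growth inhibition of human ES4 cells, read out by a cell viability assay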
# Description: SANGER: Inhibition of human ES4 cell growth in a cell viability assay.
# T98G = assay type: functional, cell-based, Homo sapiens; conditions: Homo sapiens, T98G;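 also: growth inhibition of T98G cells, read out by a cell viability assay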
# Description: SANGER: Inhibition of human T98G cell growth in a cell viability assay.
# HCC1569 = assay type: functional, cell-based, Homo sapiens; conditions: Homo sapiens, HCC1569;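 also: growth inhibition of human HCC1569 cells, read out with a cell viability assay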
# Description: SANGER: Inhibition of human HCC1569 cell growth in a cell viability assay.
# MFH-ino = assay type: functional, cell-based; conditions: Homo sapiens;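 also: growth inhibition of human MFH-ino cells, read out by a cell viability assay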
# Description: SANGER: Inhibition of human MFH-ino cell growth in a cell viability assay.
# MIA PaCa-2 = assay type: functional, cell-based, Homo sapiens; conditions: Homo sapiens, MIA PaCa-2;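 also: growth inhibition of MIA PaCa-2 cells, read out with a cell viability assay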
# Description: SANGER: Inhibition of human MIA-PaCa-2 cell growth in a cell viability assay.
# BFTC-909 = assay type: functional, cell-based, Homo sapiens; conditions: Homo sapiens, BFTC-909
# Description: SANGER: Inhibition of human BFTC-909 cell growth in a cell viability assay.
# EFO-21 = assay type: functional, cell-based, Homo sapiens; conditions: Homo sapiens, EFO-21;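 also: growth inhibition of EFO-21 cells measured with a viability assay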
# Description: SANGER: Inhibition of human EFO-21 cell growth in a cell viability assay.
# CP66-MEL = assay type: functional, cell-based, Homo sapiens; conditions: Homo sapiens, CP66-MEL;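 also: growth inhibition of CP66-MEL cells determined in a cell viability assay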
# Description: SANGER: Inhibition of human CP66-MEL cell growth in a cell viability assay.
# SNU-5 = assay type: functional, cell-based; conditions: Homo sapiens;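 also: cell viability readout used to measure growth inhibition in human NCI-SNU-5 cells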
# Description: SANGER: Inhibition of human NCI-SNU-5 cell growth in a cell viability assay.
# VA-ES-BJ = assay type: functional, cell-based, Homo sapiens; conditions: Homo sapiens, VA-ES-BJ;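 also: growth inhibition of the VA-ES-BJ cell line, read out by a cell viability assay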
# Description: SANGER: Inhibition of human VA-ES-BJ cell growth in a cell viability assay.
# A-375 = assay type: functional, cell-based, Homo sapiens; conditions: Homo sapiens, A-375;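 also: growth inhibition of A375 cells, read out with a cell viability assay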
# Description: SANGER: Inhibition of human A375 cell growth in a cell viability assay.
# MOLT-4 = assay type: functional, cell-based; conditions: Homo sapiens;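 also: growth inhibition of MOLT-4 cells, determined with a cell viability readout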
# Description: SANGER: Inhibition of human MOLT-4 cell growth in a cell viability assay.
# SNU1 = assay type: functional, cell-based; conditions: Homo sapiens;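 also: growth inhibition of human NCI-SNU-1 cells, measured with a cell viability assay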
# Description: SANGER: Inhibition of human NCI-SNU-1 cell growth in a cell viability assay.
# SF-268 = assay type: functional, cell-based, Homo sapiens; conditions: Homo sapiens, SF-268;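 also: growth inhibition of SF-268 cells determined with a cell viability assay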
# Description: SANGER: Inhibition of human SF268 cell growth in a cell viability assay.
# CAKI-1 = assay type: functional, cell-based, Homo sapiens; conditions: Homo sapiens, CAKI-1;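 also: growth inhibition of CAKI-1 cells, measured by a cell viability assay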
# Description: SANGER: Inhibition of human CAKI-1 cell growth in a cell viability assay.
# NCI-H1437 = assay type: functional, cell-based, Homo sapiens; conditions: Homo sapiens, NCI-H1437;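 also: growth inhibition of human NCI-H1437 cells, read out by a cell viability assay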
# Description: SANGER: Inhibition of human NCI-H1437 cell growth in a cell viability assay.
# 639-V = assay type: functional, cell-based, Homo sapiens; conditions: Homo sapiens, 639-V;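 also: growth inhibition of 639-V cells, read out with a cell viability assay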
# Description: SANGER: Inhibition of human 639-V cell growth in a cell viability assay.
# RCM-1 = assay type: functional, cell-based, Homo sapiens; conditions: Homo sapiens, RCM-1;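 also: growth inhibition of the RCM-1 line, determined with a cell viability readout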
# Description: SANGER: Inhibition of human RCM-1 cell growth in a cell viability assay.
# BPH-1 = assay type: functional, cell-based, Homo sapiens; conditions: Homo sapiens, BPH-1;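 also: cell viability assay measuring growth inhibition of human BPH-1 cells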
# Description: SANGER: Inhibition of human BPH-1 cell growth in a cell viability assay.
# NCI-H510A = assay type: functional, cell-based; conditions: Homo sapiens;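 also: growth inhibition of NCI-H510A cells, read out with a cell viability assay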
# MDA-MB-175-VII = assay type: functional, cell-based, Homo sapiens; conditions: Homo sapiens, MDA-MB-175-VII
# SW48 = assay type: functional, cell-based, Homo sapiens; conditions: Homo sapiens, SW48;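 also: growth inhibition of SW48 cells, read out with a cell viability assay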
# Description: SANGER: Inhibition of human SW48 cell growth in a cell viability assay.
# HCC2218 = assay type: functional, cell-based; conditions: Homo sapiens;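 also: cell viability assay read-out, with IC50 given as the concentration that inhibits growth of the cell line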
# Description: SANGER: Inhibition of human HCC2218 cell growth in a cell viability assay.
# HOP-92 = assay type: functional, cell-based, Homo sapiens; conditions: Homo sapiens, HOP-92;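 also: cell viability readout, with IC50 reflecting inhibition of HOP-92 cell growth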
# Description: SANGER: Inhibition of human HOP-92 cell growth in a cell viability assay.
# LU-139 = assay type: functional, cell-based; conditions: Homo sapiens
# Description: SANGER: Inhibition of human LU-139 cell growth in a cell viability assay.
# HTC-C3 = assay type: functional, cell-based, Homo sapiens; conditions: Homo sapiens, HTC-C3;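 also: inhibition of cell growth, read out with a cell viability assay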
# Description: SANGER: Inhibition of human HTC-C3 cell growth in a cell viability assay.
# RPMI-8226 = assay type: functional, cell-based; conditions: Homo sapiens
# Description: SANGER: Inhibition of human RPMI-8226 cell growth in a cell viability assay.
# ACHN = assay type: functional, cell-based, Homo sapiens; conditions: Homo sapiens, ACHN;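 also: cell viability read-out used to gauge how strongly growth of human ACHN cells is suppressed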
# Description: SANGER: Inhibition of human ACHN cell growth in a cell viability assay.
# J82 = assay type: functional, cell-based; conditions: Homo sapiens;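 also: growth inhibition of J82 cells, read out with a cell viability assay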
# Description: SANGER: Inhibition of human J82 cell growth in a cell viability assay.
# PA-1 = assay type: functional, cell-based, Homo sapiens; conditions: Homo sapiens, PA-1;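 also: IC50 for suppression of PA-1 cell proliferation, determined with a cell viability read-out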
# Description: SANGER: Inhibition of human PA-1 cell growth in a cell viability assay.
# SW1990 = assay type: functional, cell-based, Homo sapiens; conditions: Homo sapiens, SW1990;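 also: cell growth inhibition determined with a viability assay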
# Description: SANGER: Inhibition of human SW1990 cell growth in a cell viability assay.
# G-402 = assay type: functional, cell-based, Homo sapiens; conditions: Homo sapiens, G-402
# Description: SANGER: Inhibition of human G-402 cell growth in a cell viability assay.
# KYSE-150 cell line = assay type: functional, cell-based, Homo sapiens; conditions: Homo sapiens, KYSE-150;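 also: growth inhibition of human KYSE-150 cells, read out with a cell viability assay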
# Description: SANGER: Inhibition of human KYSE-150 cell growth in a cell viability assay.
# NCI-H441 = assay type: functional, cell-based; conditions: Homo sapiens;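 also: growth inhibition of NCI-H441 cells, read out with a cell viability assay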
# Description: SANGER: Inhibition of human NCI-H441 cell growth in a cell viability assay.
# CW-2 = assay type: functional, cell-based, Homo sapiens; conditions: Homo sapiens, CW-2;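 also: growth inhibition of CW-2 cells, read out by a cell viability assay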
# Description: SANGER: Inhibition of human CW-2 cell growth in a cell viability assay.
# HCC 2998 = assay type: functional, cell-based, Homo sapiens; conditions: Homo sapiens, HCC 2998;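 also: growth inhibition of human HCC2998 cells, measured with a cell viability read-out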
# Description: SANGER: Inhibition of human HCC2998 cell growth in a cell viability assay.
# T47D = assay type: functional, cell-based, Homo sapiens; conditions: Homo sapiens, T47D;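 also: growth inhibition of human T47D cells, measured with a cell viability assay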
# Description: SANGER: Inhibition of human T47D cell growth in a cell viability assay.
# MEG-01 = assay type: functional, cell-based; conditions: Homo sapiens;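 also: growth inhibition of MEG-01 cells, read out by a cell viability assay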
# Description: SANGER: Inhibition of human MEG-01 cell growth in a cell viability assay.
# COLO-684 = assay type: functional, cell-based; conditions: Homo sapiens
# Description: SANGER: Inhibition of human COLO-684 cell growth in a cell viability assay.
# NCI-H520 = assay type: functional, cell-based, Homo sapiens; conditions: Homo sapiens, NCI-H520;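 also: growth inhibition of NCI-H520 cells, measured by a cell viability assay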
# Description: SANGER: Inhibition of human NCI-H520 cell growth in a cell viability assay.
# IGR-1 = assay type: functional, cell-based, Homo sapiens; conditions: Homo sapiens, IGR-1;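 also: growth inhibition of human IGR-1 cells, read out with a cell viability assay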
# Description: SANGER: Inhibition of human IGR-1 cell growth in a cell viability assay.
# LXF-289 cell line = assay type: functional, cell-based, Homo sapiens; conditions: Homo sapiens, LXF-289
# Description: SANGER: Inhibition of human LXF-289 cell growth in a cell viability assay.
# HD-MY-Z = assay type: functional, cell-based, Homo sapiens; conditions: Homo sapiens, HD-MY-Z;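 also: growth inhibition of HD-MY-Z cells, read out with a cell viability assay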
# Description: SANGER: Inhibition of human HD-MY-Z cell growth in a cell viability assay.
# ME-180 = assay type: functional, cell-based; conditions: Homo sapiens;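 also: cell viability assay measuring growth inhibition of ME-180 cells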
# Description: SANGER: Inhibition of human ME-180 cell growth in a cell viability assay.
# NOS-1 = assay type: functional, cell-based, Homo sapiens; conditions: Homo sapiens, NOS-1;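 also: growth inhibition of the human NOS-1 cell line, read out with a cell viability assay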
# Description: SANGER: Inhibition of human NOS-1 cell growth in a cell viability assay.
# NCI-H446 = assay type: functional, cell-based; conditions: Homo sapiens;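 also: growth inhibition of NCI-H446 cells determined by a cell viability assay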
# Description: SANGER: Inhibition of human NCI-H446 cell growth in a cell viability assay.
# COLO-741 = assay type: functional, cell-based, Homo sapiens; conditions: Homo sapiens, COLO-741
# Description: SANGER: Inhibition of human COLO-741 cell growth in a cell viability assay.
# JAR = assay type: functional, cell-based, Homo sapiens; conditions: Homo sapiens, JAR;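 also: growth inhibition of human JAR cells determined with a cell viability assay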
# Description: SANGER: Inhibition of human JAR cell growth in a cell viability assay.
compound,measurement,setting,value
COC(=O)CNC(=O)C(=O)OC,IC50,Ramos-2G6-4C10,100 µM
same,IC50,SW780,133 µM
same,IC50,RMG-I,820 µM
same,IC50,U-118-MG,784 µM
same,IC50,ES4,1150 µM
same,IC50,T98G,666 µM
same,IC50,HCC1569,1680 µM
same,IC50,MFH-ino,644 µM
same,IC50,MIA PaCa-2,139 µM
same,IC50,BFTC-909,252 µM
same,IC50,EFO-21,260 µM
same,IC50,CP66-MEL,445 µM
same,IC50,SNU-5,> 4000 µM
same,IC50,VA-ES-BJ,907 µM
same,IC50,A-375,176 µM
same,IC50,MOLT-4,718 µM
same,IC50,SNU1,> 4000 µM
same,IC50,SF-268,414 µM
same,IC50,CAKI-1,289 µM
same,IC50,NCI-H1437,90.8 µM
same,IC50,639-V,1520 µM
same,IC50,RCM-1,2980 µM
same,IC50,BPH-1,276 µM
same,IC50,NCI-H510A,237 µM
same,IC50,MDA-MB-175-VII,> 4000 µM
same,IC50,SW48,1990 µM
same,IC50,HCC2218,> 4000 µM
same,IC50,HOP-92,1960 µM
same,IC50,LU-139,184 µM
same,IC50,HTC-C3,175 µM
same,IC50,RPMI-8226,870 µM
same,IC50,ACHN,297 µM
same,IC50,J82,57.6 µM
same,IC50,PA-1,120 µM
same,IC50,SW1990,441 µM
same,IC50,G-402,1230 µM
same,IC50,KYSE-150 cell line,1330 µM
same,IC50,NCI-H441,839 µM
same,IC50,CW-2,> 4000 µM
same,IC50,HCC 2998,3160 µM
same,IC50,T47D,> 4000 µM
same,IC50,MEG-01,484 µM
same,IC50,COLO-684,560 µM
same,IC50,NCI-H520,398 µM
same,IC50,IGR-1,1650 µM
same,IC50,LXF-289 cell line,260 µM
same,IC50,HD-MY-Z,1480 µM
same,IC50,ME-180,257 µM
same,IC50,NOS-1,772 µM
same,IC50,NCI-H446,646 µM
same,IC50,COLO-741,> 4000 µM
CN(C)C/C=C/C(=O)Nc1cc2c(Nc3ccc(F)c(Cl)c3)ncnc2cc1O[C@H]1CCOC1 [AFATINIB],IC50,Ramos-2G6-4C10,> 0.5 µM
same,IC50,SW780,> 0.5 µM
same,IC50,RMG-I,> 0.5 µM
same,IC50,U-118-MG,> 0.5 µM
same,IC50,ES4,> 0.5 µM
same,IC50,T98G,> 0.5 µM
same,IC50,HCC1569,> 0.5 µM
same,IC50,MFH-ino,> 0.5 µM
same,IC50,MIA PaCa-2,> 0.5 µM
same,IC50,BFTC-909,> 0.5 µM
same,IC50,EFO-21,> 0.5 µM
same,IC50,CP66-MEL,> 0.5 µM
same,IC50,SNU-5,> 0.5 µM
same,IC50,VA-ES-BJ,> 0.5 µM
same,IC50,A-375,> 0.5 µM
same,IC50,MOLT-4,> 0.5 µM
same,IC50,SNU1,> 0.5 µM
same,IC50,SF-268,> 0.5 µM
same,IC50,CAKI-1,> 0.5 µM
same,IC50,NCI-H1437,> 0.5 µM
same,IC50,639-V,> 0.5 µM
same,IC50,RCM-1,> 0.5 µM
same,IC50,BPH-1,0.0599 µM
same,IC50,NCI-H510A,> 0.5 µM
same,IC50,MDA-MB-175-VII,0.0342 µM
same,IC50,JAR,> 0.5 µM
same,IC50,SW48,> 0.5 µM
same,IC50,HCC2218,0.00987 µM
same,IC50,HOP-92,> 0.5 µM
same,IC50,LU-139,0.305 µM
same,IC50,HTC-C3,> 0.5 µM
same,IC50,RPMI-8226,> 0.5 µM
same,IC50,ACHN,0.32 µM
same,IC50,J82,> 0.5 µM
same,IC50,PA-1,> 0.5 µM
same,IC50,SW1990,> 0.5 µM
same,IC50,G-402,> 0.5 µM
same,IC50,KYSE-150 cell line,> 0.5 µM
same,IC50,NCI-H441,> 0.5 µM
same,IC50,CW-2,0.469 µM
same,IC50,HCC 2998,> 0.5 µM
same,IC50,T47D,> 0.5 µM
same,IC50,MEG-01,> 0.5 µM
same,IC50,COLO-684,> 0.5 µM
same,IC50,NCI-H520,> 0.5 µM
same,IC50,IGR-1,> 0.5 µM
same,IC50,LXF-289 cell line,> 0.5 µM
same,IC50,HD-MY-Z,> 0.5 µM
same,IC50,ME-180,> 0.5 µM
same,IC50,NOS-1,> 0.5 µM
same,IC50,NCI-H446,> 0.5 µM
same,IC50,COLO-741,> 0.5 µM
O=C(NOCC1CC1)c1ccc(F)c(F)c1Nc1ccc(I)cc1Cl [CI-1040],IC50,Ramos-2G6-4C10,> 10 µM
same,IC50,SW780,3.14 µM
same,IC50,RMG-I,> 10 µM
same,IC50,U-118-MG,> 10 µM
same,IC50,ES4,8.87 µM
same,IC50,T98G,9 µM
same,IC50,HCC1569,> 10 µM
same,IC50,MFH-ino,> 10 µM
same,IC50,MIA PaCa-2,3.01 µM
same,IC50,BFTC-909,> 10 µM
same,IC50,EFO-21,> 10 µM
same,IC50,CP66-MEL,0.488 µM
same,IC50,SNU-5,3.68 µM
same,IC50,VA-ES-BJ,> 10 µM
same,IC50,A-375,1.9 µM
same,IC50,MOLT-4,> 10 µM
same,IC50,SNU1,0.754 µM
same,IC50,SF-268,> 10 µM
same,IC50,CAKI-1,8.57 µM
same,IC50,NCI-H1437,1.55 µM
same,IC50,639-V,9.64 µM
same,IC50,RCM-1,1.24 µM
same,IC50,BPH-1,1.9 µM
same,IC50,NCI-H510A,> 10 µM
same,IC50,MDA-MB-175-VII,> 10 µM
same,IC50,JAR,> 10 µM
same,IC50,SW48,6.95 µM
same,IC50,HCC2218,2.65 µM
same,IC50,HOP-92,4.26 µM
same,IC50,LU-139,> 10 µM
same,IC50,HTC-C3,0.465 µM
same,IC50,RPMI-8226,> 10 µM
same,IC50,ACHN,7.03 µM
same,IC50,J82,> 10 µM
same,IC50,PA-1,5.64 µM
same,IC50,SW1990,> 10 µM
same,IC50,G-402,> 10 µM
same,IC50,KYSE-150 cell line,> 10 µM
same,IC50,NCI-H441,> 10 µM
same,IC50,CW-2,> 10 µM
same,IC50,HCC 2998,5.49 µM
same,IC50,T47D,> 10 µM
same,IC50,MEG-01,9.25 µM
same,IC50,COLO-684,> 10 µM
same,IC50,NCI-H520,> 10 µM
same,IC50,IGR-1,> 10 µM
same,IC50,LXF-289 cell line,> 10 µM
same,IC50,HD-MY-Z,1.57 µM
same,IC50,ME-180,5.58 µM
same,IC50,NOS-1,> 10 µM
same,IC50,NCI-H446,> 10 µM
same,IC50,COLO-741,3.19 µM
